Assay results: patent US20240391862A1, “(1,4,5-TRISUBSTITUTED-1H-PYRAZOL-3-YL)OXY-2-ALKOXY ALKYL ACIDS AND THEIR DERIVATIVES, THEIR SALTS AND THEIR USE AS HERBICIDAL AGENTS” (Bayer AKtiengesellschaft, priority 2021, published 2024)

What was measured:
[1] = system: ZEAMX; experiment: Post-emergence herbicidal effect and crop plant compatibility, greenhouse pot test; assay type: in vivo, Zea mays; details: one-leaf stage, rated visually after about 3 weeks vs untreated controls
How it was run: (§1)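 Greenhouse pot plants in sandy loam receive a one-leaf-stage spray at 20 to 320 g/ha. Activity is assessed visually around 3 weeks afterwards on a 0–100% scale, where 100% means the plants have died.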

[2] = system: TRZAS; experiment: as above; assay type: in vivo, Triticum aestivum; details: 20 g/ha, one-leaf stage, rated visually after about 3 weeks vs untreated controls; for percent crop injury (phytotoxicity) to wheat, post-emergence at 20 g/ha: Triticum aestivum, 504 h, read-out: Post-emergence effect at 20 g/ha against TRZAS in %
How it was run: as §1

[3] = system: ABUTH; experiment: Post-emergence herbicidal effect, greenhouse pot test; assay type: in vivo, Abutilon theophrasti; details: visual rating about 3 weeks after treatment
How it was run: as §1

[4] = system: ALOMY; experiment: as above; assay type: in vivo, Alopecurus myosuroides; details: 320 g/ha, visual rating about 3 weeks after treatment
How it was run: as §1

[5] = system: AMARE; experiment: as above; assay type: in vivo, Amaranthus retroflexus; details: 320 g/ha, visual rating about 3 weeks after treatment
How it was run: as §1

[6] = system: AVEFA; experiment: as above; assay type: in vivo, Avena fatua; details: visual rating about 3 weeks after treatment
How it was run: as §1

[7] = system: DIGSA; experiment: as above; assay type: in vivo, Digitaria sanguinalis; details: 320 g/ha, visual rating about 3 weeks after treatment
How it was run: as §1

[8] = system: ECHCG; experiment: as above; assay type: in vivo, Echinochloa crus-galli
How it was run: as §1

[9] = system: LOLRI; experiment: as above; assay type: in vivo, Lolium rigidum
How it was run: as §1

[10] = system: MATIN; experiment: as above; assay type: in vivo, Tripleurospermum inodorum
How it was run: as §1

[11] = system: PHBPU; experiment: as above; assay type: in vivo, Ipomoea purpurea
How it was run: as §1

[12] = system: POLCO; experiment: as above; assay type: in vivo, Fallopia convolvulus
How it was run: as §1

[13] = system: SETVI; experiment: as above; assay type: in vivo, Setaria viridis
How it was run: as §1

[14] = system: VERPE; experiment: as above; assay type: in vivo, Veronica persica
How it was run: as §1

[15] = system: VIOTR; experiment: as above; assay type: in vivo, Viola tricolor
How it was run: as §1

[16] = system: KCHSC; experiment: as above; assay type: in vivo
How it was run: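 Visual rating of activity against untreated plants (100% = plants died, 0% = no effect), done about 3 weeks after treatment. Compounds applied at 20–320 g/ha as aqueous spray (600 l/ha, 0.5% additive) from WP or EC formulations onto one-leaf-stage plants grown in sandy loam under greenhouse conditions.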

[17] = 504 h, 320 g/ha, read-out: Post-emergence effect against KCHSC in %

CCOC(Oc1nn(-c2ccccc2F)c(-c2ccc(F)nc2)c1Cl)C(=O)OCCC(=O)OC (centres unmarked) [Example I-53]
Post-emergence effect at 20 g/ha against ZEAMX in % ([1]; 20 g/ha): 0% | Post-emergence effect at 20 g/ha against TRZAS in % [2]: 0% | Post-emergence effect against ABUTH ([3]; 320 g/ha): 80% | Post-emergence effect against ALOMY [4]: 100% | Post-emergence effect against AMARE [5]: 80% | Post-emergence effect against AVEFA ([6]; 320 g/ha): 90% | Post-emergence effect against DIGSA [7]: 90% | Post-emergence effect against ECHCG in % ([8]; 80 g/ha): 90% | Post-emergence effect against ECHCG in % ([8]; 320 g/ha): 90% | Post-emergence effect against LOLRI in % ([9]; 320 g/ha): 90% | Post-emergence effect against MATIN in % ([10]; 320 g/ha): 80% | Post-emergence effect against PHBPU in % ([11]; 80 g/ha): 90% | Post-emergence effect against PHBPU in % ([11]; 320 g/ha): 90% | Post-emergence effect against POLCO in % ([12]; 80 g/ha): 80% | Post-emergence effect against POLCO in % ([12]; 320 g/ha): 80% | Post-emergence effect against SETVI in % ([13]; 320 g/ha): 90% | Post-emergence effect against VERPE in % ([14]; 80 g/ha): 80% | Post-emergence effect against VERPE in % ([14]; 320 g/ha): 90% | Post-emergence effect against VIOTR in % ([15]; 80 g/ha): 80% | Post-emergence effect against VIOTR in % ([15]; 320 g/ha): 80% | Post-emergence effect against KCHSC in % ([16]; 320 g/ha): 80%

COC(=O)C(OC)Oc1nn(-c2ccccc2F)c(-c2ccc(F)nc2)c1C1CC1 (centres unmarked) [Example I-71]
plant injury at 20 g/ha ([1]; Zea mays, 504 h, 20 g/ha, read-out: Post-emergence effect at 20 g/ha against ZEAMX in %): 10% | percent crop injury (phytotoxicity) to wheat, post-emergence at 20 g/ha [2]: 20% | pest or weed control at 80 g/ha ([3]; Abutilon theophrasti, 504 h, 80 g/ha, read-out: Post-emergence effect against ABUTH): 90% | pest or weed control at 320 g/ha ([3]; Abutilon theophrasti, 504 h, 320 g/ha, read-out: Post-emergence effect against ABUTH): 90% | pest or weed control at 320 g/ha ([4]; Alopecurus myosuroides, 504 h, read-out: Post-emergence effect against ALOMY): 90% | pest or weed control at 320 g/ha ([5]; Amaranthus retroflexus, 504 h, read-out: Post-emergence effect against AMARE): 80% | pest or weed control at 320 g/ha ([6]; Avena fatua, 504 h, 320 g/ha, read-out: Post-emergence effect against AVEFA): 90% | pest or weed control at 320 g/ha ([7]; Digitaria sanguinalis, 504 h, read-out: Post-emergence effect against DIGSA): 90% | pest or weed control at 20 g/ha ([8]; Echinochloa crus-galli, 504 h, 20 g/ha, visual rating about 3 weeks after treatment, read-out: Post-emergence effect against ECHCG): 90% | pest or weed control at 80 g/ha ([8]; Echinochloa crus-galli, 504 h, 80 g/ha, read-out: Post-emergence effect against ECHCG in %): 90% | pest or weed control at 320 g/ha ([8]; Echinochloa crus-galli, 504 h, 320 g/ha, read-out: Post-emergence effect against ECHCG in %): 90% | pest or weed control at 320 g/ha ([9]; Lolium rigidum, 504 h, 320 g/ha, read-out: Post-emergence effect against LOLRI in %): 90% | pest or weed control at 80 g/ha ([10]; Tripleurospermum inodorum, 504 h, 80 g/ha, read-out: Post-emergence effect against MATIN in %): 80% | pest or weed control at 320 g/ha ([10]; Tripleurospermum inodorum, 504 h, 320 g/ha, read-out: Post-emergence effect against MATIN in %): 80% | pest or weed control at 20 g/ha ([11]; Ipomoea purpurea, 504 h, 20 g/ha, read-out: Post-emergence effect against PHBPU in %): 80% | pest or weed control at 80 g/ha ([11]; Ipomoea purpurea, 504 h, 80 g/ha, read-out: Post-emergence effect against PHBPU in %): 90% | pest or weed control at 320 g/ha ([11]; Ipomoea purpurea, 504 h, 320 g/ha, read-out: Post-emergence effect against PHBPU in %): 90% | pest or weed control at 80 g/ha ([12]; Fallopia convolvulus, 504 h, 80 g/ha, read-out: Post-emergence effect against POLCO in %): 80% | pest or weed control at 320 g/ha ([12]; Fallopia convolvulus, 504 h, 320 g/ha, read-out: Post-emergence effect against POLCO in %): 80% | pest or weed control at 80 g/ha ([13]; Setaria viridis, 504 h, 80 g/ha, read-out: Post-emergence effect against SETVI in %): 80% | pest or weed control at 320 g/ha ([13]; Setaria viridis, 504 h, 320 g/ha, read-out: Post-emergence effect against SETVI in %): 90% | pest or weed control at 80 g/ha ([14]; Veronica persica, 504 h, 80 g/ha, read-out: Post-emergence effect against VERPE in %): 90% | pest or weed control at 320 g/ha ([14]; Veronica persica, 504 h, 320 g/ha, read-out: Post-emergence effect against VERPE in %): 90% | pest or weed control at 20 g/ha ([15]; Viola tricolor, 504 h, 20 g/ha, read-out: Post-emergence effect against VIOTR in %): 90% | pest or weed control at 80 g/ha ([15]; Viola tricolor, 504 h, 80 g/ha, read-out: Post-emergence effect against VIOTR in %): 90% | pest or weed control at 320 g/ha ([15]; Viola tricolor, 504 h, 320 g/ha, read-out: Post-emergence effect against VIOTR in %): 90% | pest or weed control at 80 g/ha ([16]; 504 h, 80 g/ha, read-out: Post-emergence effect against KCHSC in %): 80% | pest or weed control at 320 g/ha [16, 17]: 90%

COC(Oc1nn(-c2ncccc2F)c(-c2cncc(F)c2)c1C1CC1)C(=O)O (centres unmarked) [Example I-85]
Post-emergence effect at 20 g/ha against ZEAMX in % ([1]; 20 g/ha): 0% | plant injury at 80 g/ha ([1]; Zea mays, 504 h, 80 g/ha, read-out: Post-emergence effect at 80 g/ha against ZEAMX in %): 20% | percent crop injury (phytotoxicity) to wheat, post-emergence at 20 g/ha [2]: 0% | Post-emergence effect against ABUTH ([3]; 80 g/ha): 80% | Post-emergence effect against ABUTH ([3]; 320 g/ha): 90% | Post-emergence effect against ALOMY [4]: 90% | Post-emergence effect against AMARE [5]: 80% | Post-emergence effect against AVEFA ([6]; 80 g/ha): 90% | Post-emergence effect against AVEFA ([6]; 320 g/ha): 90% | Post-emergence effect against DIGSA [7]: 90% | Post-emergence effect against ECHCG ([8]; 20 g/ha, visual rating about 3 weeks after treatment): 90% | Post-emergence effect against ECHCG in % ([8]; 80 g/ha): 90% | Post-emergence effect against ECHCG in % ([8]; 320 g/ha): 90% | Post-emergence effect against LOLRI in % ([9]; 80 g/ha): 80% | Post-emergence effect against LOLRI in % ([9]; 320 g/ha): 90% | Post-emergence effect against PHBPU in % ([11]; 20 g/ha): 80% | Post-emergence effect against PHBPU in % ([11]; 80 g/ha): 90% | Post-emergence effect against PHBPU in % ([11]; 320 g/ha): 90% | Post-emergence effect against POLCO in % ([12]; 80 g/ha): 90% | Post-emergence effect against POLCO in % ([12]; 320 g/ha): 90% | pest or weed control at 20 g/ha ([12]; Fallopia convolvulus, 504 h, 20 g/ha, read-out: Post-emergence effect against POLCO in %): 80% | Post-emergence effect against SETVI in % ([13]; 80 g/ha): 90% | Post-emergence effect against SETVI in % ([13]; 320 g/ha): 90% | Post-emergence effect against VERPE in % ([14]; 320 g/ha): 90% | Post-emergence effect against VIOTR in % ([15]; 80 g/ha): 80% | Post-emergence effect against VIOTR in % ([15]; 320 g/ha): 90% | Post-emergence effect against KCHSC in % ([16]; 80 g/ha): 90% | Post-emergence effect against KCHSC in % ([16]; 320 g/ha): 90%

COC(=O)C(OC)Oc1nn(-c2ncccc2F)c(-c2ccc(F)nc2)c1C1CC1 (centres unmarked) [Example I-107]
Post-emergence effect at 20 g/ha against ZEAMX in % ([1]; 20 g/ha): 0% | Post-emergence effect at 80 g/ha against ZEAMX in % ([1]; 80 g/ha): 0% | percent crop injury (phytotoxicity) to wheat, post-emergence at 20 g/ha [2]: 20% | Post-emergence effect against ABUTH ([3]; 320 g/ha): 80% | Post-emergence effect against ALOMY [4]: 100% | Post-emergence effect against AMARE [5]: 80% | Post-emergence effect against AVEFA ([6]; 320 g/ha): 90% | Post-emergence effect against DIGSA [7]: 80% | Post-emergence effect against ECHCG in % ([8]; 320 g/ha): 90% | Post-emergence effect against LOLRI in % ([9]; 320 g/ha): 90% | Post-emergence effect against PHBPU in % ([11]; 80 g/ha): 80% | Post-emergence effect against PHBPU in % ([11]; 320 g/ha): 80% | Post-emergence effect against POLCO in % ([12]; 80 g/ha): 90% | Post-emergence effect against POLCO in % ([12]; 320 g/ha): 90% | Post-emergence effect against SETVI in % ([13]; 320 g/ha): 90% | Post-emergence effect against VERPE in % ([14]; 320 g/ha): 80% | Post-emergence effect against VIOTR in % ([15]; 320 g/ha): 90% | pest or weed control at 320 g/ha [16, 17]: 90%
